Five compounds from US20210253575A1, “PYRROLIDINE AMINE COMPOUNDS FOR THE TREATMENT OF AUTOIMMUNE DISEASE” (Hoffmann-La Roche Inc., priority 2018, published 2021) can be followed below.

Molecules are shown by their SMILES.

For the test, the target named is T1, human TLR9 (Homo sapiens, UniProt Q9NR96).
T1 sequence (Q9NR96 26-1032): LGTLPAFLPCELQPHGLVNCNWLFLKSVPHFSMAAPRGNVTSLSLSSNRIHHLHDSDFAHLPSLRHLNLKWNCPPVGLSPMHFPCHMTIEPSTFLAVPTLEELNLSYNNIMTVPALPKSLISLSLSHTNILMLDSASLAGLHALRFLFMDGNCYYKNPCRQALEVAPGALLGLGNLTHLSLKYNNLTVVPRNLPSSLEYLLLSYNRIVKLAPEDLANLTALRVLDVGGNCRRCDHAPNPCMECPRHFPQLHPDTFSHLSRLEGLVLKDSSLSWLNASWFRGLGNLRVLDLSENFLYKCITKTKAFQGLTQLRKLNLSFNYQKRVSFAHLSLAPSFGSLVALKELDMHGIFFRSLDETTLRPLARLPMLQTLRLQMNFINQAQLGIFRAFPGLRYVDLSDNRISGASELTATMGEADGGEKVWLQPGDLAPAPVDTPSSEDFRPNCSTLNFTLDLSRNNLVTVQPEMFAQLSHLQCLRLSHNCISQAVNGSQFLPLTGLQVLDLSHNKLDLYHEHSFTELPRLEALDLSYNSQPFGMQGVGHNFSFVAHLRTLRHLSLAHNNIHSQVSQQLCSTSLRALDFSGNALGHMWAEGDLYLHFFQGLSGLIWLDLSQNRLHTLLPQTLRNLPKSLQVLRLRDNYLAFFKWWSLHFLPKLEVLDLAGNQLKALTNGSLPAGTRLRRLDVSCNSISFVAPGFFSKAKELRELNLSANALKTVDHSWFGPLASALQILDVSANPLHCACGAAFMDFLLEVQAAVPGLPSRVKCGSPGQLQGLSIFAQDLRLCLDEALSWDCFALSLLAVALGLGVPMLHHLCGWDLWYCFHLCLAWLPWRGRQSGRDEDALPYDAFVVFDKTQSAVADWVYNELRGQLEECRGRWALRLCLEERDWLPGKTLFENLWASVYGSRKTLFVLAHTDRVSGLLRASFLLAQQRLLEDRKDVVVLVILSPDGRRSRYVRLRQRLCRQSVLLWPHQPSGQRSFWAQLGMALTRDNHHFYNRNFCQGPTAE
Briefly: HEK293-Blue-hTLR-9 cells assay (SEAP reporter, ODN2006 stimulation). The test is classed as cell-based. To be noted: HEK293-Blue-hTLR9 cells, ODN2006 ligand, 20 hrs incubation. An outline of the steps: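 HEK293-Blue-hTLR9 cells with NF-κB/AP-1-driven SEAP reporter, stimulated with ODN2006 in presence of serially diluted compounds (1% DMSO) for 20 h at 37 °C. Supernatant SEAP measured with QUANTI-Blue after 2 h at 37 °C, absorbance 620–655 nm.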
As usually defined, the IC50 is the concentration that gives 50% inhibition. Low values mean greater potency in that assay, high ones weaker potency in that assay. In turn, `N#Cc1ccc(N2CC(CN3CCNCC3)C3(CC3)C2)c2nccnc12` (centres unmarked) [Example 3, 8-[7-(piperazin-1-ylmethyl)-5-azaspiro[2.4]heptan-5-yl]quinoxaline-5-carbonitrile] returned an IC50 of 1870 nM. This counts as single-digit micromolar. `N#Cc1ccc(N2CC(CN3CC4CCC(C3)C4N)C3(CC3)C2)c2nccnc12` (centres unmarked) [Example 4, 8-[7-[(8-Amino-3-azabicyclo[3.2.1]octan-3-yl)methyl]-5-azaspiro[2.4]heptan-5-yl]quinoxaline-5-carbonitrile] displayed an IC50 of 244 nM.

On to `CN(C)[C@@H]1CCN(C[C@H]2CN(c3ccc(C#N)c4nccnc34)C[C@@H]2C(F)(F)F)C1` [Example 83, 8-[(3S,4R)-3-[[(3R)-3-(dimethylamino)pyrrolidin-1-yl]methyl]-4-(trifluoromethyl)pyrrolidin-1-yl]quinoxaline-5-carbonitrile], for which the IC50 was determined as 2020 nM. Consider `CN1CCC2(CCN(C[C@H]3CN(c4ccc(C#N)c5nccnc45)C[C@@H]3C(F)(F)F)C2)C1` (stereo partly drawn) [Example 84, 8-[(3S,4R)-3-[(7-methyl-2,7-diazaspiro[4.4]nonan-2-yl)methyl]-4-(trifluoromethyl)pyrrolidin-1-yl]quinoxaline-5-carbonitrile], for which the IC50 was determined as 409 nM. For the compound `CC1(CN)CCN(C[C@H]2CN(c3ccc(C#N)c4nccnc34)C[C@@H]2C(F)(F)F)C1` (stereo partly drawn) [Example 85, 8-[(3S,4R)-3-[[3-(aminomethyl)-3-methyl-pyrrolidin-1-yl]methyl]-4-(trifluoromethyl)pyrrolidin-1-yl]quinoxaline-5-carbonitrile], the midpoint of inhibition, the IC50, lay at 314 nM. This IC50 and that of the compound before are within 1.5-fold of each other.
